Test results as given in patent publication US4877792A, “Heteroaryloxy-beta-carboline derivatives, their preparation and their use as medicinal agents” (Schering Aktiengesellschaft, priority 1986, dated 1989).

Columns and labels:
[1] = target: benzodiazepine receptors; assay: displacement of 3H-flunitrazepam binding, in vitro (rat brain membranes); settings: 3H-flunitrazepam 1.0 nM, 0° C.
[2] = test system: benzodiazepine receptor; assay: inhibition of 3H-flunitrazepam binding in live brain, in vivo (mice); settings: normally i.p., 3H-flunitrazepam i.v. after 15 min
[3] = 4-plate assay, anxiolytic activity (Boissier et al.); type: in vivo; settings: Mus musculus, ip; minimum lowest dose which increases locomotor activity of punished mice; i.p.; read-out: Anxiolytic Activity MED
Description: The compounds of this invention display especially anxiolytic and anticonvulsive activities. In order to study the anxiolytic effect, the compounds were tested in the 4-plate assay according to the method by Boissier et al., Eur. J. Pharmacol. 4:145-150 ([…]). The table indicates the minimum lowest dose (MED) which increases the locomotor activity of the punished mice after i.p. treatment.

Structure (SMILES) | Inhibition of 3H-Flunitrazepam Binding IC50 in vitro [1] [ng/mL] | Inhibition of 3H-Flunitrazepam Binding ED50 in vivo [2] [mg/kg] | minimal effective dose [3] [mg/kg]
COCc1c(C(=O)OC(C)C)ncc2[nH]c3ccc(Oc4ccc(Br)cn4)cc3c12 | 0.75 | 2.7 | 3.13
CCc1noc(-c2cc3c(cn2)[nH]c2cccc(Oc4ncccn4)c23)n1 | 0.28 | 2.8 | 3.13
